Measurements published in patent publication US20240116933A1, “INDAZOLE AND PYRAZOLOPYRIDINE COMPOUNDS AS INHIBITORS OF NLRP3 INFLAMMASOME” (BioAge Labs, Inc., priority 2022, published 2024).

Target: T1, NLRP3 inflammasome (Homo sapiens, UniProt Q96P20)
T1 construct: endogenous in cells; host or cells: THP-1 cells (PMA-differentiated, LPS-primed, nigericin-stimulated)
Assay: THP-1 Cell-Based NLRP3 Activation Assay
Conditions: THP-1 cells, PMA, 100 ng/mL LPS 3 hrs, 30 min pre-incubation with test compound, 10 μM nigericin 1 hr
Protocol: THP-1 cells are cultured in complete media (CM) until they reach logarithmic growth and achieve a viability >90%. CM is composed of RPMI-1640 (+Glutamax)/10% fetal bovine serum/55 μM β-mercaptoethanol/pen/strep. Cells are spun down and resuspended to 1,000,000 cells/mL in CM containing either 20 nM or 500 nM PMA. 150,000 cells […] are then added to each well of a 96-well TC plate and incubated for either 24 hr or 3 hr, respectively, in a standard cell culture incubator (37° C.; 5% CO2). After this incubation, the plate is tilted and media carefully removed. 200 μL of CM containing 100 ng/mL LPS is then added to the wells and the cells incubated an additional 3 hrs. The media is again removed and replaced with Opti-Mem medium containing pre-determined dilutions of test compounds in replicate wells. After a 30 min pre-incubation with test compound, 10 μM nigericin (final concentration) in Opti-Mem medium with the corresponding concentration of compound is added to the wells for an additional 1 hr. Positive control wells contain 10 μM nigericin in Opti-Mem in the absence of test compound, while negative control wells contain Opti-Mem only. […] Once supernatants are removed, the relative viability of adherent cells in the 96-well TC plate are determined using a CellTiter-Glo® luminescent cell viability assay (Promega).

T1 sequence (Q96P20 whole entry): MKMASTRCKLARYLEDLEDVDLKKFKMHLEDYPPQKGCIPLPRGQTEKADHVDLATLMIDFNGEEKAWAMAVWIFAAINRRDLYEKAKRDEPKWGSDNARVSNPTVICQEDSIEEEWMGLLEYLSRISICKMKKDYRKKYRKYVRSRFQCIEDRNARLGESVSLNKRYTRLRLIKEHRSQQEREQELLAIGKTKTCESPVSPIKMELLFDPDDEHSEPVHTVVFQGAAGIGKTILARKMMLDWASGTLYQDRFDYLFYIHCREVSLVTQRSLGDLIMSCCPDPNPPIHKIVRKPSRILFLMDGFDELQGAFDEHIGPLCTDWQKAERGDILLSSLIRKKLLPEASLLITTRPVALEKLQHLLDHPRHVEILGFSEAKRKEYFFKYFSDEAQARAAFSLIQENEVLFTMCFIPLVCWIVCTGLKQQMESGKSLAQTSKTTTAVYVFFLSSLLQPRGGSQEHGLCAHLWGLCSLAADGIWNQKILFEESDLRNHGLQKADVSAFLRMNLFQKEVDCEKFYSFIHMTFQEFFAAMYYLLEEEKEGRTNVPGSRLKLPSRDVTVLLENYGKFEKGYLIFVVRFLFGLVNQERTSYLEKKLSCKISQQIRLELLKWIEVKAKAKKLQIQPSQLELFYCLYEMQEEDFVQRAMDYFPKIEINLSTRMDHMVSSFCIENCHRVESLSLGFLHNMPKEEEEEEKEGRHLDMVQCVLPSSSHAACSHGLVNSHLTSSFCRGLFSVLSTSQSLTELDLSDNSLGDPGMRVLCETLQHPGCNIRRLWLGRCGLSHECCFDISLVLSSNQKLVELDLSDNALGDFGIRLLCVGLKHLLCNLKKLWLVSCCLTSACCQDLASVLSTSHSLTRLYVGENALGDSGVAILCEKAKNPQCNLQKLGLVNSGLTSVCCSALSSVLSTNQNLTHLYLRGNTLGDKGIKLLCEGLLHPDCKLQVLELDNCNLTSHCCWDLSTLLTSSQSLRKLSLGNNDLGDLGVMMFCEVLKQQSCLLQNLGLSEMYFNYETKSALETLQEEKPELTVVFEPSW

## CCOc1cc(C(=O)N(C)Cc2cccc3[nH]ncc23)ccc1-c1cccc(F)c1 [Compound 129]
  IC50: < 10000 nM

## CCOc1cc(C(=O)N(C)Cc2cnc(C(C)O)c3cn[nH]c23)ccc1-c1cccc(Cl)c1 (centres unmarked) [Compound 030]
  IC50: < 1000 nM

## CCOc1cc(C(=O)N(C)Cc2c(C)nc(C)c3cn[nH]c23)ccc1-c1cccc(F)c1 [Compound 053]
  IC50: < 1000 nM

## CCOc1cc(C(=O)N(C)Cc2cnc(CO)c3cn[nH]c23)cc(F)c1-c1cc(C#N)cs1 [Compound 073]
  IC50: < 1000 nM

## CCN(Cc1cnc(CO)c2cn[nH]c12)C(=O)c1cc(F)c(-c2cccc(F)c2)c(OC2CC2)c1 [Compound 180]
  IC50: < 1000 nM

## CCOc1cc(C(=O)N(C)Cc2cnc(CO)c3cn[nH]c23)ccc1-c1nc(Cl)cs1 [Compound 157]
  IC50: < 1000 nM

## Cc1nc(CO)c2cn[nH]c2c1CN(C)C(=O)c1ccc(-c2cccc(C#N)c2)c(OC2CC2)c1 [Compound 078]
  IC50: < 1000 nM

## CC(C)Oc1cc(C(=O)N(C)Cc2cnc(C(C)O)c3cn[nH]c23)ccc1-c1cccc(Cl)c1 (centres unmarked) [Compound 141]
  IC50: < 1000 nM

## CCOc1cc(C(=O)N(C)Cc2cnc(CO)c3cn[nH]c23)cc(F)c1-c1ccsc1 [Compound 107]
  IC50: < 1000 nM

## CCN(Cc1cnc(CO)c2cn[nH]c12)C(=O)c1ccc(-c2cccc(C#N)c2)c(OC2CC2)c1 [Compound 082]
  IC50: < 50000 nM

## CCOc1cc(C(=O)N(CC)Cc2cnc(C(C)O)c3cn[nH]c23)cc(F)c1-c1cccc(F)c1 (centres unmarked) [Compound 174]
  IC50: < 1000 nM

## Cc1ncc(CN(C)C(=O)c2cc(F)c(-c3cccc(F)c3)c(OC3CC3)c2)c2[nH]ncc12 [Compound 038]
  IC50: < 1000 nM

## CN(Cc1c(CO)ncc2cn[nH]c12)C(=O)c1cc(F)c(-c2cccc(F)c2)c(OC2CC2)c1 [Compound 139]
  IC50: < 1000 nM

## Cc1ncc([C@H](C)N(C)C(=O)c2cc(F)c(-c3cccc(F)c3)c(OC3CC3)c2)c2[nH]ncc12 [Compound 035]
  IC50: < 1000 nM

## CCOc1cc(C(=O)N(C)Cc2cnc(C)c3cn[nH]c23)ccc1-c1cc(F)cs1 [Compound 140]
  IC50: < 10000 nM

## CCOc1cc(C(=O)N(CC)Cc2cnc(C(C)O)c3cn[nH]c23)cc(F)c1-c1cccc(Cl)c1 (centres unmarked) [Compound 172]
  IC50: < 1000 nM

## CCOc1cc(C(=O)N(C)Cc2cccc3[nH]ncc23)ccc1-c1cccc(C#N)c1 [Compound 126]
  IC50: < 1000 nM

## CN(Cc1cnc(CO)c2cn[nH]c12)C(=O)c1ccc(-c2cc(F)cc(Cl)c2)c(OC2COC2)c1 [Compound 152]
  IC50: < 1000 nM

## CN(Cc1cc(O)cc2cn[nH]c12)C(=O)c1cc(F)c(-c2ccccc2)c(OC2CC2)c1 [Compound 114]
  IC50: < 1000 nM

## C[C@@H](c1cncc2cn[nH]c12)N(C)C(=O)c1ccc(-c2cccc(F)c2)c(OC2CC2)c1 [Compound 052]
  IC50: < 1000 nM

## CCOc1cc(C(=O)N(C)Cc2cnc(C)c3cn[nH]c23)ccc1-c1cc(C#N)cs1 [Compound 153]
  IC50: < 10000 nM

## CC(C)Oc1cc(C(=O)N(C)Cc2cnc(CO)c3cn[nH]c23)ccc1-c1cccc(F)c1 [Compound 134]
  IC50: < 1000 nM

## CCOc1cc(C(=O)N(C)Cc2c(C)nc(CO)c3cn[nH]c23)ccc1-c1cccc(F)c1 [Compound 037]
  IC50: < 1000 nM

## CN(Cc1cc(O)cc2cn[nH]c12)C(=O)c1cc(F)c(-c2cccc(F)c2)c(OC2CC2)c1 [Compound 099]
  IC50: < 1000 nM

## CCOc1cc(C(=O)N(C)[C@@H](C)c2cnc(CO)c3cn[nH]c23)ccc1-c1cccc(F)c1 [Compound 160]
  IC50: < 1000 nM

## CCOc1nc(C(=O)N(C)[C@H](C)c2ccc(CF)c3cn[nH]c23)ccc1-c1cccc(F)c1 [Compound 075]
  IC50: < 50000 nM

## CCOc1cc(C(=O)N(C)[C@H](C)c2cccc3cn[nH]c23)ccc1-c1cccc(F)c1 [Compound 058]
  IC50: < 50000 nM

## Cc1nc(CO)c2cn[nH]c2c1CN(C)C(=O)c1ccc(-c2cccc(Cl)c2)c(OC2CC2)c1 [Compound 041]
  IC50: < 1000 nM

## CCOc1cc(C(=O)N(C)Cc2cnc(C(C)O)c3cn[nH]c23)cc(F)c1-c1cc(F)cc(Cl)c1 (centres unmarked) [Compound 096]
  IC50: < 1000 nM

## CC(C)Oc1cc(C(=O)N(C)Cc2cnc(CO)c3cn[nH]c23)ccc1-c1cccc(Cl)c1 [Compound 143]
  IC50: < 1000 nM

## CCOc1cc(C(=O)N(CC)Cc2cnc(CO)c3cn[nH]c23)ccc1-c1cccc(Cl)c1 [Compound 177]
  IC50: < 1000 nM

## CN(Cc1c(CO)ncc2cn[nH]c12)C(=O)c1ccc(-c2cccc(Cl)c2)c(OC2CC2)c1 [Compound 144]
  IC50: < 1000 nM

## CCC(c1cncc2cn[nH]c12)N(C)C(=O)c1ccc(-c2cccc(F)c2)c(OC2CC2)c1 (centres unmarked) [Compound 109]
  IC50: < 1000 nM

## CCCOc1cc(C(=O)N(C)Cc2cnc(CO)c3cn[nH]c23)cc(F)c1-c1cccc(F)c1 [Compound 138]
  IC50: < 1000 nM

## CCOc1cc(C(=O)N(CC)Cc2cnc(CO)c3cn[nH]c23)ccc1-c1cccc(F)c1 [Compound 097]
  IC50: < 1000 nM

## Cc1nc(CO)c2cn[nH]c2c1CN(C)C(=O)c1cc(F)c(-c2cccc(Cl)c2)c(OC2CC2)c1 [Compound 040]
  IC50: < 1000 nM

## CCOc1cc(C(=O)N(C)Cc2cnc(CO)c3cn[nH]c23)cc(F)c1-c1cc(F)cs1 [Compound 093]
  IC50: < 1000 nM

## Cc1nc(C)c2cn[nH]c2c1CN(C)C(=O)c1cc(F)c(-c2cccc(F)c2)c(OC2CC2)c1 [Compound 119]
  IC50: < 1000 nM

## CCOc1cc(C(=O)N(C)Cc2cnc(C(C)O)c3cn[nH]c23)cc(F)c1-c1cc(F)cc(C#N)c1 (centres unmarked) [Compound 076]
  IC50: < 1000 nM

## CCN(Cc1cnc(CO)c2cn[nH]c12)C(=O)c1cc(F)c(-c2cccc(C#N)c2)c(OC2CC2)c1 [Compound 087]
  IC50: < 1000 nM

## CCOc1cc(C(=O)N(C)[C@H](C)c2ccc(CF)c3cn[nH]c23)ccc1-c1cccc(F)c1 (single isomer, unassigned) [Compound 169]
  IC50: < 10000 nM

## CCOc1cc(C(=O)N(CC)Cc2cnc(C(C)O)c3cn[nH]c23)ccc1-c1cccc(F)c1 (centres unmarked) [Compound 067]
  IC50: < 1000 nM

## CCN(Cc1cnc(C)c2cn[nH]c12)C(=O)c1cc(F)c(-c2cccc(Cl)c2)c(OC2CC2)c1 [Compound 032]
  IC50: < 1000 nM

## CCOc1cc(C(=O)N(C)Cc2cc(O)cc3cn[nH]c23)cc(F)c1-c1ccccc1 [Compound 112]
  IC50: < 1000 nM

## CCOc1cc(C(=O)N(C)Cc2c(C3CC3)ncc3cn[nH]c23)ccc1-c1cccc(F)c1 [Compound 011]
  IC50: < 1000 nM

## CN(Cc1c(CO)ncc2cn[nH]c12)C(=O)c1cc(F)c(-c2cccc(Cl)c2)c(OC2CC2)c1 [Compound 145]
  IC50: < 1000 nM

## CCOc1cc(C(=O)N(C)Cc2cnc(C(C)O)c3cn[nH]c23)cc(F)c1-c1cccs1 (centres unmarked) [Compound 154]
  IC50: < 1000 nM

## CCOc1cc(C(=O)N(C)Cc2c(CO)ncc3cn[nH]c23)ccc1-c1cccc(F)c1 [Compound 039]
  IC50: < 1000 nM

## CN(Cc1cc(O)cc2cn[nH]c12)C(=O)c1cc(F)c(-c2cccc(C#N)c2)c(OC2CC2)c1 [Compound 111]
  IC50: < 1000 nM

## CCN(Cc1cnc(C(C)O)c2cn[nH]c12)C(=O)c1ccc(-c2cccc(F)c2)c(OC2CC2)c1 (centres unmarked) [Compound 179]
  IC50: < 1000 nM

## CCOc1cc(C(=O)N(C)Cc2cnc(C(C)O)c3cn[nH]c23)ccc1-c1ccc(Cl)s1 (centres unmarked) [Compound 163]
  IC50: < 1000 nM

## CCOc1cc(C(=O)N(C)Cc2cc(O)cc3cn[nH]c23)cc(F)c1-c1cccc(Cl)c1 [Compound 178]
  IC50: < 1000 nM

## CN(Cc1cc(O)cc2cn[nH]c12)C(=O)c1cc(F)c(-c2cccc(Cl)c2)c(OC2CC2)c1 [Compound 113]
  IC50: < 1000 nM
